From patent publication US20110294686A1, “EGFR INHIBITOR THERAPY RESPONSIVENESS” (priority 2008, published 2011)
Like-named read-outs stand apart in the source and are kept apart here.

Legend:
[1] = tested on: chemo-refractory advanced stage NSCLC; conditions: phase II clinical trials; cited from earlier work
[2] = tested on: Metastatic NSCLC patients; conditions: for Response to gefitinib therapy: metastatic NSCLC
[3] = EIF3H FISH negative patients (mean <2.75)
[4] = EIF3H FISH positive patients (mean ≧2.75)
[5] = MYC FISH negative patients (mean <2.79)
[6] = MYC FISH positive patients (mean ≧2.79)

## COc1cc2ncnc(Nc3ccc(F)c(Cl)c3)c2cc1OCCCN1CCOCC1 [gefitinib]
[1]
  patients responding to treatment: 11-20%
[2]; [3]
  response rate (RR): 0%
  time to progression (TTP): 2.7 months
[2]; [4]
  response rate (RR): 32%
  survival (OS): 17.8 months
  time to progression (TTP): 4.4 months
[2]; EIF3H amplified patients (ratio EIF3H/CEP8>2)
  Response to gefitinib therapy: 30%
[2]; EIF3H non amplified patients
  Response to gefitinib therapy: 14%
[2]; [5]
  response rate (RR): 0%
  time to progression (TTP): 2.6 months
[2]; [6]
  response rate (RR): 31%
  time to progression (TTP): 4.4 months
[2]; MYC amplified patients
  Response to gefitinib therapy: 25%
[2]; MYC non-amplified patients
  Response to gefitinib therapy: 14%
